Data on 19 compounds can be found in ChEMBL document CHEMBL1201862, “PubChem BioAssay data set” (2004).

The source made the active and inactive calls.

The target in experiment [1] is Peroxisome proliferator-activated receptor gamma/Nuclear receptor coactivator 2 (Homo sapiens, UniProt P37231). It counts as functional.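 Also: agonist potency for raising coactivator recruitment to the receptor.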
Experiment [2] concerns the target Peroxisome proliferator-activated receptor gamma/Nuclear receptor coactivator 1 (Homo sapiens, UniProt P37231). Format: functional.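 Also: agonist potency as compounds enhance coactivator SRC-1 recruitment to PPARgamma.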
Experiment [3] deals with Peroxisome proliferator-activated receptor gamma/Nuclear receptor coactivator 3 (Homo sapiens, UniProt P37231). It counts as functional.
Chain of Peroxisome proliferator-activated receptor gamma/Nuclear receptor coactivator 3 (P37231 whole entry): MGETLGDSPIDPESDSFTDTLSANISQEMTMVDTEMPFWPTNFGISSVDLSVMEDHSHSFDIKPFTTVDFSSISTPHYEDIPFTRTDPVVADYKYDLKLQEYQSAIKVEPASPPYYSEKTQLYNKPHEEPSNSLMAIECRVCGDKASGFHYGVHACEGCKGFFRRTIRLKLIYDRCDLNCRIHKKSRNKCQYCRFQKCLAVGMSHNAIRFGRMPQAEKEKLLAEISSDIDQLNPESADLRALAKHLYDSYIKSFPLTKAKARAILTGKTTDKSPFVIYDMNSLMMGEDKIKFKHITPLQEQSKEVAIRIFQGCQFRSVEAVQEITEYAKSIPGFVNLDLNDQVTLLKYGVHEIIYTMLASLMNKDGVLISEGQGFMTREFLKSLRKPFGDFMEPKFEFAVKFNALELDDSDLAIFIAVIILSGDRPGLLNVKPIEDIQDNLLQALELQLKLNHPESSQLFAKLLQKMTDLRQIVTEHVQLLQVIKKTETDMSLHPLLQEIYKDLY
Chain of Peroxisome proliferator-activated receptor gamma/Nuclear receptor coactivator 3 (Q9Y6Q9 whole entry, further chain): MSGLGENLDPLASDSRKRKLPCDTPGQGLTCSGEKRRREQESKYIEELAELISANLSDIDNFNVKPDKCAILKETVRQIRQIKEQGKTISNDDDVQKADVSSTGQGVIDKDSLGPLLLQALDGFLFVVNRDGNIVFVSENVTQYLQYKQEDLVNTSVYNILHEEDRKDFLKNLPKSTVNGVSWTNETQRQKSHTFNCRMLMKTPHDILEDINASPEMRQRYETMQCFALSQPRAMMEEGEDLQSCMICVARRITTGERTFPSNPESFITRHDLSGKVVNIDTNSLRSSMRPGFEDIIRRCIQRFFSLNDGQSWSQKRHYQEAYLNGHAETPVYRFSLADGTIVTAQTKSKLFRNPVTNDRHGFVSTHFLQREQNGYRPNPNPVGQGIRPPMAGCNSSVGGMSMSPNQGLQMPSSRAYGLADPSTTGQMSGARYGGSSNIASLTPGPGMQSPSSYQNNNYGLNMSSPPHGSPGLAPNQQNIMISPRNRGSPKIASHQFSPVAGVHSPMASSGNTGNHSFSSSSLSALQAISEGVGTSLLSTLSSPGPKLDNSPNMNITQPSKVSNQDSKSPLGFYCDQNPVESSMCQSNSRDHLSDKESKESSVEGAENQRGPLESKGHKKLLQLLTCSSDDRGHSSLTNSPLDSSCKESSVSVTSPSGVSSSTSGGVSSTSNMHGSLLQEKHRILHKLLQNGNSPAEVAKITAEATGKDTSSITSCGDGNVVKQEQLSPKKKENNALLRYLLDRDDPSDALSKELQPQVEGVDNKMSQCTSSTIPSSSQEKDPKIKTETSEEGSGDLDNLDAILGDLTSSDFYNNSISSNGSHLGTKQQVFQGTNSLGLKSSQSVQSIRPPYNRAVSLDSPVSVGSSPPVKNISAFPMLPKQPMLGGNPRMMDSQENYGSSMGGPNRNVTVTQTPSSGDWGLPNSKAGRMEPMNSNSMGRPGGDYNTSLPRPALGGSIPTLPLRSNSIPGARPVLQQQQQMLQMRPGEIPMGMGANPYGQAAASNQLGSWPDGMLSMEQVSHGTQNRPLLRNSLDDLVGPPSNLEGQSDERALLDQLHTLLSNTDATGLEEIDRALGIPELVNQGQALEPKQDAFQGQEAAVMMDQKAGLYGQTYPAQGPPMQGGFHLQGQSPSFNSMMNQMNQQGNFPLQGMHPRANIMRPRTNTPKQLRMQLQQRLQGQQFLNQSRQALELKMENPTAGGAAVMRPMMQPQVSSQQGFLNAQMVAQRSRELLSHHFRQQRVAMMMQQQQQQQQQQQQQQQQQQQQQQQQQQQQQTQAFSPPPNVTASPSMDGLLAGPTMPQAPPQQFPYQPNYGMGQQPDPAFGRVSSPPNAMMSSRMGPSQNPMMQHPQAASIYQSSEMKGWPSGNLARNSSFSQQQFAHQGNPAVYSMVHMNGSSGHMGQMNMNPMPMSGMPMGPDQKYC
The nature of experiment [4]: toxicity to human HepG2 hepatoma cells – cell-based, plate reader, dry powder samples, cytotoxicity control, dose response (AID 1159569).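 Also: inhibitor potency with signal falling toward the positive control level.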 Format: functional.
Experiment [5] is described as follows: P. falciparum Dd2 growth inhibitors, dose response, SYBR Green, cherry-picked samples (AID 1159567). Format: functional, cell-based.
A short description of experiment [6]: growth inhibition of PfATP4-mutant resistant parasites – NITD609-resistant line, SYBR Green, dry powder, dose response (AID 1159571).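 Also: parasites synchronized at ring stage by sorbitol before testing.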 It counts as functional, cell-based.
Experiment [7] can be described thus: growth inhibition of yeast DHODH-expressing 3D7 parasites – SYBR Green, dry powder samples, dose response (AID 1159570).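 Also: parasite growth measured after 72 hours of compound exposure.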 Format: functional, cell-based.
Experiment [8] can be described thus: Dd2 malaria parasite growth inhibition potency – SYBR Green, dry powder samples, dose response (AID 1159566).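 Also: potency for growth inhibition with lower SYBR green DNA signal.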 Format: functional, cell-based.
Experiment [9] in a line: HPDE-C7 pancreatic duct cell viability loss – fluorescence, HTS (AID 430). Format: functional, cell-based. Particulars: Homo sapiens.
Experiment [10] in a line: viability loss of HPDE-C7K cells – cell-based, fluorescence, HTS, primary screen (AID 431). It counts as functional. Particulars: Homo sapiens.
The nature of experiment [11]: toxicity to human hepatoma HepG2 cells – cell-based, cherry-picked samples, cytotoxicity control, dose response (AID 1159577). It counts as functional.
The nature of experiment [12]: A2780 cell killing – plate reader, dry powder samples, cytotoxicity control, dose response (AID 743046). Format: functional, cell-based.
In the next experiment the target is Paired box protein Pax-8 (Homo sapiens, UniProt Q06710). Put plainly: PAX8 transcriptional activity inhibition in RMG-I – RMG-I cells, luciferase, cherry-pick, dose response (AID 687027).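 Also: luciferase reporter driven by Pax8 target thyroperoxidase promoter measured by SteadyGlo luminescence.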 Format: functional, cell-based.
Chain of Paired box protein Pax-8 (Q06710 whole entry): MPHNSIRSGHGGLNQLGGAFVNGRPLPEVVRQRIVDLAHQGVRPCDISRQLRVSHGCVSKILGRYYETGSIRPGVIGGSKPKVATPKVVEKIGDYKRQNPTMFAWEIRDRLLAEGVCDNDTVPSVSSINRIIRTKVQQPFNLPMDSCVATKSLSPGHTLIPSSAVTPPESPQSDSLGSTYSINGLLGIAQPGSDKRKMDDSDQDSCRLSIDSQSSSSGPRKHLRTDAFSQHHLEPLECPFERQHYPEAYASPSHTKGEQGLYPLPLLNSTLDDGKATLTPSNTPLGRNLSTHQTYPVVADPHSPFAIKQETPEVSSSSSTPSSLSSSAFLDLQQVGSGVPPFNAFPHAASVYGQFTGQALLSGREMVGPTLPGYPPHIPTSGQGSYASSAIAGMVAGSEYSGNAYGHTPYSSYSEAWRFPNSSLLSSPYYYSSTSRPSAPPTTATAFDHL
The nature of experiment [13]: OVCAR8 cell viability loss – plate reader, dry powder samples, PAX8 project, dose response (AID 743197). It counts as functional, cell-based. The settings on record: OVCAR-8.
A short description of experiment [14]: OVCAR-3 cell viability loss – plate reader, dry powder samples, PAX8 inhibitor project, dose response (AID 743044). It counts as functional, cell-based.
A short description of experiment [15]: toxicity toward immortalized ovarian surface epithelium – cell-based, plate reader, dry powder samples, cytotoxicity control for PAX8 inhibitor project, dose response (AID 743045). It counts as functional.
A short description of experiment [16]: IGROV1 cell killing – plate reader, dry powder samples, PAX8 inhibitor project, dose response (AID 743043). It counts as functional, cell-based. Particulars: IGROV-1.
In experiment [17] the target is T1, Aryl hydrocarbon receptor (Homo sapiens, UniProt P35869).
T1 sequence (P35869 whole entry): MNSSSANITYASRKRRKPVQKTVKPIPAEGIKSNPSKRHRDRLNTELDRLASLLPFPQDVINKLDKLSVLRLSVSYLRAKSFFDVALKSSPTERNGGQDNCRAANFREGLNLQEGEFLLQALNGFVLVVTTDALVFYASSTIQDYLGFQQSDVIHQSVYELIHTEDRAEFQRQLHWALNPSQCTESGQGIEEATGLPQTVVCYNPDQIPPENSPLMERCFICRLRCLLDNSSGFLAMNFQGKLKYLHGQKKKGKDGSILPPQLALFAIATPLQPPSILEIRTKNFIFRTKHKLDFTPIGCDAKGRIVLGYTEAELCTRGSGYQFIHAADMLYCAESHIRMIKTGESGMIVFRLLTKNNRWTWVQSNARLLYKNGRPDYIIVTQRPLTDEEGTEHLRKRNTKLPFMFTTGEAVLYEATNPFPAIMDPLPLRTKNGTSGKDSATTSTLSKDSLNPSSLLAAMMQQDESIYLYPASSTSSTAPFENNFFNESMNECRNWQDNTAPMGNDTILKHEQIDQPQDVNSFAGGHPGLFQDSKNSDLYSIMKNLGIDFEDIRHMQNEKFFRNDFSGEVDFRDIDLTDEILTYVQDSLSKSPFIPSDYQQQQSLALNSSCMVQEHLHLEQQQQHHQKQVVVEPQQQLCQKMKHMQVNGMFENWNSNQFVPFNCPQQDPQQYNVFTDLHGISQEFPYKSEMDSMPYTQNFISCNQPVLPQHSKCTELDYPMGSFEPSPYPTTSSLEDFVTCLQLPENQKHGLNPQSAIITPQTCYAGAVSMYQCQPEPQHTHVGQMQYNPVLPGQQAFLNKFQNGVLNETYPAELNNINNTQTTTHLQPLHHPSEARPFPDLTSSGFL
The experiment in a line: Luminescence-based cell-based high throughput dose response assay for activators of the Aryl Hydrocarbon Receptor (AHR). [Related pubchem assays: 2796 (Primary screen (AHR activators in singlicate)), 2845 (Confirmation screen (AHR activators in triplicate)), 434939 (Counterscreen (PXR activators in triplicate)), 2804 (Summary (AHR activators))]. Format: ADME. For orientation: Counterscreens check selectivity or assay interference.

The target of experiment [18] is T2, Neuropeptide Y receptor type 2 (Homo sapiens, UniProt P49146).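 Also: HEK293 cells expressing the receptor and a CNG channel; stimulus was NPY near EC95 followed by isoproterenol to raise cAMP; antagonist potency measured as restoring cAMP signal that NPY suppresses.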
T2 sequence (P49146 whole entry): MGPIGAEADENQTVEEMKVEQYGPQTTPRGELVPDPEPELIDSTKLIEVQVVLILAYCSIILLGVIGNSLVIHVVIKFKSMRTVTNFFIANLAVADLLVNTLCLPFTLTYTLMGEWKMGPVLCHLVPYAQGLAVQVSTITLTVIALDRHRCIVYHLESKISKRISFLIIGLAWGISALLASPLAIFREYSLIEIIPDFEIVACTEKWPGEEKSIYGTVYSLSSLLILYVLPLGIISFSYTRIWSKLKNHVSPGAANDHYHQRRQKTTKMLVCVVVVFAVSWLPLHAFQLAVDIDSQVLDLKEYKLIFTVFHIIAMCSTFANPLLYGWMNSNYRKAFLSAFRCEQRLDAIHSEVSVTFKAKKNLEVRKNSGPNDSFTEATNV
Format: functional, cell-based.

Experiment [19] addresses T3, Neuropeptide Y receptor type 1 (Homo sapiens, UniProt P25929).
T3 sequence (P25929 whole entry): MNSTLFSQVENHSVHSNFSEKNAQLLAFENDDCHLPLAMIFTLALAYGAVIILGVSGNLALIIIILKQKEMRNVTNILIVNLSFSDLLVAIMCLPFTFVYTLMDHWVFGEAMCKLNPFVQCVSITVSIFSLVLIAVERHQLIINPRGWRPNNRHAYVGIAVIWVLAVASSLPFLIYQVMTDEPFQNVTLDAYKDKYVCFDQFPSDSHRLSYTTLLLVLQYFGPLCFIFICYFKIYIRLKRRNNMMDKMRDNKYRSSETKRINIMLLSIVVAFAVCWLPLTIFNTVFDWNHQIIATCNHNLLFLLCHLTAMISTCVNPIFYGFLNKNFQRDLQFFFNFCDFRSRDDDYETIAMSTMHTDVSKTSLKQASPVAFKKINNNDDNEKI
It counts as functional.

Experiment [20] can be described thus: M. tuberculosis H37Rv growth inhibitors, H37Rv strain (AID 1626). Format: functional.
A short description of experiment [21]: Luminescence Cell-Based Dose Response to Identify Activators of Luciferase Translation or Activity in H4-C Neuroglioblastoma Cells. [Related pubchem assays: 1829 (Project Summary), 1814 (Primary HTS)]. It counts as functional.
Experiment [22] can be described thus: Luminescence Cell-Based Dose Confirmation to Identify Activators of 5'UTR Stem-Loop Driven Alpha-Synuclein mRNA Translation in H4 Neuroglioblastoma Cells. [Related pubchem assays: 1829 (Project Summary), 1814 (Primary HTS)]. Format: functional.
The nature of experiment [23]: Luminescence Cell-Based Dose Response HTS to Identify Activators of Luciferase Translation or Activity in H4 […] Cells. [Related pubchem assays: 1829 (Project Summary), 1814 (Primary HTS)]. It counts as functional.
Experiment [24] in a line: Luminescence Cell-Based Dose Confirmation HTS to Identify Activators of 5'UTR Stem-Loop Driven Alpha-Synuclein mRNA Translation in H4 Neuroglioblastoma Cells. [Related pubchem assays: 1829 (Project Summary), 1814 (Primary HTS)]. Format: functional.
Experiment [25] can be described thus: Luminescence Cell-Based Dose Response to Identify Activators of 5'UTR Stem-Loop Driven Prion Protein mRNA Translation in H4-C Neuroglioblastoma Cells. [Related pubchem assays: 1829 (Project Summary), 1814 (Primary HTS)]. Format: functional.
Experiment [26] concerns the target T4, Oxysterols receptor LXR-beta (Homo sapiens, UniProt P55055).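 Also: Cell-based luminescence dose-response assay of agonist activity at LXR, run as a confirmatory counterscreen to a daf-12 agonist screen; HEK293 cells with Gal4-LXR fusion and GAL4-driven luciferase reporter; agonist potency from rising luciferase signal of a Gal4-LXR reporter.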
T4 sequence (P55055 whole entry): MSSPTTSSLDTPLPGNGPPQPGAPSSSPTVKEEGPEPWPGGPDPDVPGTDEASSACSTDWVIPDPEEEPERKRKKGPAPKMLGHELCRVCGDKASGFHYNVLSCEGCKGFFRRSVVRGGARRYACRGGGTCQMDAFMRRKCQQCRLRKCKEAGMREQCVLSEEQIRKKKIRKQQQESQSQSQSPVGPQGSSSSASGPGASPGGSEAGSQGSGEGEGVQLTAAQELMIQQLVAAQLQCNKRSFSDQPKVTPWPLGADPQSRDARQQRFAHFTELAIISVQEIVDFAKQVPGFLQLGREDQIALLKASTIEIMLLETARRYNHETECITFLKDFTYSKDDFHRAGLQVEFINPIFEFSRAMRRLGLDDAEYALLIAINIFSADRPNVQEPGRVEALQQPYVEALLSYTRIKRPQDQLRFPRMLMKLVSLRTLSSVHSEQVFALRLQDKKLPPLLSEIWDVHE
It counts as functional, cell-based.

Experiment [27] in a line: IC50 of insulin release inhibition, rat insulinoma INS-1E line, 5 mM glucose, cell-based (AID 1117331). Format: functional.

Chain of Peroxisome proliferator-activated receptor gamma/Nuclear receptor coactivator 2 (P37231 whole entry): as the sequence (P37231 whole entry) above
Chain of Peroxisome proliferator-activated receptor gamma/Nuclear receptor coactivator 2 (Q15596 whole entry, further chain): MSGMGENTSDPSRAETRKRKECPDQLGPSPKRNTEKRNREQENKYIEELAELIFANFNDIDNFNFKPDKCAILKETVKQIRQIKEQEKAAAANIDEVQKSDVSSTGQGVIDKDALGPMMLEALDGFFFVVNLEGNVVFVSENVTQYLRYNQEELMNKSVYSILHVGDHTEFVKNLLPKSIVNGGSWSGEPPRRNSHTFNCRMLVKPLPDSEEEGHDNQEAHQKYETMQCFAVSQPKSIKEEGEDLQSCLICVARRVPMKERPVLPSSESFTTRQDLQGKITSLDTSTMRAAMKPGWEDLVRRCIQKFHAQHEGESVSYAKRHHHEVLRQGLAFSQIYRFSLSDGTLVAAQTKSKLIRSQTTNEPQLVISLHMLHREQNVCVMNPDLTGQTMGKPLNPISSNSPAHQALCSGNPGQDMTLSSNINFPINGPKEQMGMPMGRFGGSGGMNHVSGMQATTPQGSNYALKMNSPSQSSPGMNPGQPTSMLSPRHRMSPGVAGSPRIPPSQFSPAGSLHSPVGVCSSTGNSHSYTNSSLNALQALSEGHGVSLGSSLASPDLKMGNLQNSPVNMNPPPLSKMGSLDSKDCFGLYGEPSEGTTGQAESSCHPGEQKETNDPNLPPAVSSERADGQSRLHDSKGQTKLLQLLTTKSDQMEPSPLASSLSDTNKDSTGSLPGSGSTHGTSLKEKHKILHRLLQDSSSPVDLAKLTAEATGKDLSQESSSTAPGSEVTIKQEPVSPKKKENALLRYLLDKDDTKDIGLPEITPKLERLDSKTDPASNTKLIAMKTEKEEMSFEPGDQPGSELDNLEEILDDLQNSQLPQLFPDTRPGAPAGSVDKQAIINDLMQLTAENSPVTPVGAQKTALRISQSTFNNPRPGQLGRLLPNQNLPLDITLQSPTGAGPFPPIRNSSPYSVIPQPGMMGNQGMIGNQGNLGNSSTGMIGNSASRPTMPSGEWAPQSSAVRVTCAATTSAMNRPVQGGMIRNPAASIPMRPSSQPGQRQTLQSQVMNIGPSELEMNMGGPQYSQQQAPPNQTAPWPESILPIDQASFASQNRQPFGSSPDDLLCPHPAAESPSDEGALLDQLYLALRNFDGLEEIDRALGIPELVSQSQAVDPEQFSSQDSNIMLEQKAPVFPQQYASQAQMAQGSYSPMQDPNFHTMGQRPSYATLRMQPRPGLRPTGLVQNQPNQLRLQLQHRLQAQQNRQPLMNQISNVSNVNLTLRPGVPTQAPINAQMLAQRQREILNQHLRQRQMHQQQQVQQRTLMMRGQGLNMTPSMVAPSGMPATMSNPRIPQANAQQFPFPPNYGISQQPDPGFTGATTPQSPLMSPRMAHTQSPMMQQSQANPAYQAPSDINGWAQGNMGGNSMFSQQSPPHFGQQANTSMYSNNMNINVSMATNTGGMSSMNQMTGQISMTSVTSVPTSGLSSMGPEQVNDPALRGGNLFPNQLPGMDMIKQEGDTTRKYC

By EC50 is commonly meant the concentration that produces a half-maximal response. As for `Cc1cccc(C)c1NC(=S)Nc1c(C)n(C)n(-c2ccccc2)c1=O`, the EC50 in [1], in experiment [2] and in experiment [3] was > 79.4 µM (not active) in each case.
As a reminder, the AC50 is the midpoint of the concentration-response curve, whichever way the signal moves. For `N#Cc1ccc(-c2ccc([C@@H]3[C@@H]4CN(C(=O)C5CCCCC5)C[C@H]3N4)cc2)cc1`, the concentration at half-maximal activity (AC50) is 23.8 µM (active) in experiment [4]; 2.79 µM (active) in experiment [5]; 2.85 µM (active) in [6]; 2.4 µM (active) in [7]; 1.34 µM (active) in [8].
With `CC(C)(C)NC(=O)C1N(c2cccnc2)C(=O)C2C(C(=O)Nc3ccccc3F)C3(C)C=CC21O3` (stereo not given), the EC50 in experiment [9] and in experiment [10] was > 20 µM (not active) each time.
`OC[C@H]1[C@@H](c2ccc(-c3ccc(F)cc3)cc2)[C@@H]2CN(CCC(F)(F)F)CCCCN12`: the AC50 in [4] was 17 µM (active); in experiment [5], 0.726 µM (active); in experiment [6], 1.1 µM (active); in experiment [11], 20.5 µM (active); in experiment [7], 1.21 µM (active); in experiment [8], 0.518 µM (active).
With `C=CCn1c(N)c(C(=O)NCC2CCCO2)c2nc3ccccc3nc21` (stereo not given), the EC50 in experiment [9] and in experiment [10] was > 20 µM (not active) in each case.
On to `Cc1n[nH]c2c1C(c1ccc(-c3ccccc3C#N)o1)C(C#N)=C(N)O2` (stereo not given), for which the EC50 in experiment [9] was 7.78 µM (active); in [10], 16.3 µM (active).
With `C[C@H](CO)N1C[C@H](C)[C@@H](CN(C)Cc2ccccc2)OCCCC[C@H](C)Oc2ccc(NC(=O)Nc3ccc(C(F)(F)F)cc3)cc2C1=O`, the AC50 is 36.2 µM (active) in [12]; 13.5 µM (active) on Paired box protein Pax-8; 25.2 µM (active) in experiment [13]; 16.7 µM (active) in [14]; 39.8 µM (active) in experiment [15]; 22.4 µM (active) in experiment [16].
Turning to `CCOc1ccccc1NC(=O)c1ccc2nccnc2c1`, the concentration for a half-maximal effect (EC50) in [17] was 2.21 µM (active).
What is called IC50 is the midpoint of a concentration-inhibition curve. `COc1ccc(-n2nc(C(=O)Nc3ccc4c(c3)OCO4)c3ccccc3c2=O)cc1`: the IC50 in experiment [18] was 7.17 µM (active); in experiment [19], 7.16 µM (active).
On to `CC(C)COc1ccc(C(=O)OC2CC(C)(C)OCC2CN(C)C)cc1` (stereo not given), for which the values for the IC50 in experiment [18] and in experiment [19] were 8.01 µM (active) and 5.55 µM (active), respectively.
As to `[O-][n+]1onc2c1CCc1nnc(-c3ccccc3)cc1-2`, the EC50 in experiment [17] was 2.83 µM (active).
In the case of `CC(C)c1ccc(NC(=O)COc2ccc(C3SCCS3)cc2)cc1`, in experiment [20], the IC50 is > 100 µM (active).
`CC(C)(C)CC(=O)Nc1nnc(-c2cccs2)s1`: the EC50 is 0.408 µM (active) in experiment [21]; 0.231 µM (active) in experiment [22]; < 0.1 µM (active) in [23]; < 0.1 µM (active) in [24]; 0.335 µM (active) in [25].
For `C[C@@H]1CN([C@H](C)CO)C(=O)c2cc(NC(=O)Nc3ccc(C(F)(F)F)cc3)ccc2O[C@@H](C)CCCCO[C@H]1CN(C)C(=O)Nc1ccc(C(F)(F)F)cc1`, the AC50 was 34.1 µM (active) in [12]; 1.89 µM (active) at Paired box protein Pax-8; 52.3 µM (active) in experiment [13]; 12.4 µM (active) in experiment [14]; 63 µM (active) in experiment [16].
As to `C/C(=N\c1ccc(C)cc1)c1sc2ccccc2c1O`, the EC50 (in the experiment “cells”; in experiment [26]) was > 67.5 µM (inactive) each time.
For `CCO[C@H](Cc1ccc(OCCc2ccc(OS(C)(=O)=O)cc2)cc1)C(=O)O`, in experiment [27], the IC50 was > 33.3 µM (inactive).
As to `CCOC(=O)c1sc2nc(-c3ccccc3)ccc2c1N`, the EC50 (in “cells”; in experiment [26]) was > 67.5 µM (inactive) throughout.
As to `O=C(Nc1nc(-c2ccc(F)cc2)cs1)c1cnccn1`, in [20], the IC50 was > 100 µM (active).
`Cc1cc(O)nc(N/N=C/c2ccc(Br)s2)n1`: in experiment [17], the EC50 is 8.5 µM (active).
